In PubChem BioAssay (NCI) one finds TGI and GI50 data, which are given here for five molecules.

What all share (experiment): DTP human tumour cell line panel, 48 h
The subject of experiment [1] is K-562 leukemia.
For experiment [2], the system named is HCC-2998 colon.
In experiment [3] the test system is HT29 colon.
Experiment [4] relates to T-47D breast.
In experiment [5] the test system is HCT-15 colon.
Experiment [6] relates to MCF7 breast.
For experiment [7], the system named is A498 renal.
The test system of experiment [8] is OVCAR-5 ovarian.
The test system of experiment [9] is MDA-MB-231 breast.
Experiment [10] relates to NCI-H226 lung.

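Values below derive from 48-hour exposures of cells grown in 96-well plates, with endpoints linearly interpolated between the two concentrations bracketing the appropriate inhibition level. GI50 = concentration required for 50% inhibition of growth. TGI marks complete inhibition of growth.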

One may read the TGI as the concentration at which net growth stops. A high value points to lower sensitivity of the cells. One may read the GI50 as the concentration that inhibits growth by half.

For `Nc1cc(-c2ccc(Cl)cc2)nn1-c1nc2ccccc2nc1-c1ccccc1`, the TGI in experiment [1], in experiment [2], in experiment [3], in experiment [4], in experiment [5] and in experiment [6] was more than 100 µM each time. In addition, the TGI in experiment [7], in experiment [8], in [9] and in experiment [10] was more than 100 µM each time.

Turning to `COc1ccc(C(=O)N(C(=O)N2CCN(c3ccccc3)CC2)S(=O)(=O)c2ccccc2)cc1`, the TGI is 94.4 µM in experiment [1]; more than 100 µM in [2]; more than 100 µM in experiment [3]; 54 µM in [4]; more than 100 µM in experiment [5]; more than 100 µM in experiment [6]. Also, the TGI in experiment [7] is more than 100 µM; in experiment [8], 70.8 µM; in experiment [9], 81.9 µM; in experiment [10], 58.8 µM.

For `COc1cc([C@@H]2c3cc4c(cc3[C@@H](c3c(O)cc(O)c5c3O[C@H](c3ccc(O)c(O)c3)[C@H](OC(=O)c3cc(O)c(O)c(O)c3)C5)[C@H]3COC(=O)[C@H]23)OCO4)cc(OC)c1OC`, the TGI in experiment [1] is more than 100 µM; in experiment [2] it was 71.7 µM; in experiment [3], more than 75.9 µM; in [4] it was more than 100 µM; in [5] it was more than 100 µM; in experiment [6], more than 100 µM. The TGI in [7] was more than 100 µM; in experiment [8], more than 100 µM; in experiment [9], more than 100 µM; in experiment [10], 7.53 µM.

Take `CCCN1C(=O)CSC1=Nc1ccc2cc3ccc(N=C4SCC(=O)N4CCC)cc3nc2c1`: the GI50 in experiment [1] was 52.2 µM; in [2] it was more than 100 µM; in [3], 90.6 µM; in experiment [4] it was 18.2 µM; in [5], more than 100 µM; in experiment [6], 77.6 µM. The GI50 was more than 100 µM in experiment [7], more than 100 µM in experiment [8], 25.1 µM in [9] and 16.5 µM in experiment [10]. Further, the TGI in [1], in experiment [2], in experiment [3], in experiment [4], in experiment [5] and in [6] was more than 100 µM in each case. For the same molecule, the concentration for total growth inhibition (TGI) in experiment [7], in [8], in [9] and in experiment [10] was more than 100 µM in each case.

As for `O=C1/C(=C\c2ccc(F)cc2)CCOc2c1ccc1ccccc21`, the concentration for total growth inhibition (TGI) in [1] is more than 31.1 µM; in experiment [2], 17.7 µM; in experiment [3], more than 56.8 µM; in experiment [4] it was more than 100 µM; in experiment [5], more than 100 µM; in [6] it was 51.9 µM. Besides, the TGI was more than 62.1 µM in experiment [7], 42.3 µM in experiment [8], more than 47.7 µM in [9] and more than 100 µM in experiment [10]. Also, the GI50 in [10] was 33.6 µM.
